# Active and inactive are the calls of the source. No cut-off for these calls is given here.
# What was measured:
# Urea transporter 1 [1] = target: T1, Urea transporter 1 (Rattus norvegicus, UniProt P97689); experiment: Inhibition of rat UT-B expressed in MDCK cells; format: cell-based
# T1 sequence (P97689 whole entry): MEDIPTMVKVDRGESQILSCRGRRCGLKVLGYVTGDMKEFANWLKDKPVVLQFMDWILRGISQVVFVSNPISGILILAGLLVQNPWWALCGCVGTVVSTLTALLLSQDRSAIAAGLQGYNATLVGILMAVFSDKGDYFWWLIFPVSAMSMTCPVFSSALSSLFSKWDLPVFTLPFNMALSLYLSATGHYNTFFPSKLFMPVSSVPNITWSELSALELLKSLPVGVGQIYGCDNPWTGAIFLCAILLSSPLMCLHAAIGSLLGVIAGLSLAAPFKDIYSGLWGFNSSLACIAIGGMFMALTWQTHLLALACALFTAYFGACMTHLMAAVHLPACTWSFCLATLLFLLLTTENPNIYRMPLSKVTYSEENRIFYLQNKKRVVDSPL
# Urea transporter 1 [2] = target: T2, Urea transporter 1 (Mus musculus, UniProt Q8VHL0); experiment: Inhibition of mouse UT-B expressed in MDCK cells; format: cell-based
# T2 sequence (Q8VHL0 whole entry): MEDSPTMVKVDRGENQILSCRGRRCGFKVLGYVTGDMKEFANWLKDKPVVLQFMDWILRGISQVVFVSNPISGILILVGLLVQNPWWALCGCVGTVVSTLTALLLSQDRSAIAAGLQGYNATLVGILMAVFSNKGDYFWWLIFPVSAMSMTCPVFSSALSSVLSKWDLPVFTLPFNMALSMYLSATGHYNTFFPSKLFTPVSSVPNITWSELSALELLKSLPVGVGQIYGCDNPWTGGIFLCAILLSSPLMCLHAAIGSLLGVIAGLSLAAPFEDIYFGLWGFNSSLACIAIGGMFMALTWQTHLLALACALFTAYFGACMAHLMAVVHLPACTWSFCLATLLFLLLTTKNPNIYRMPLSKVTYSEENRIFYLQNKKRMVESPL
# [3] = Metabolic stability in Sprague-Dawley rat liver microsomes assessed as percentage of compound remaining after 240 mins by LC-MS/MS analysis; format: ADME, Microsome; conditions: read-out: Stability
# [4] = AUC (0 to t) in Sprague-Dawley rat at 100 mg/kg, po by LC-MS/MS analysis; format: ADME, organism-based; set-up: dose 100 mg/kg; conditions: in vivo
# MDCK [5] = experiment: Inhibition of rat UT-A1 expressed in MDCK cells assessed as inhibition of urea transport at 8 uM; format: cell-based
# [6] = Half life in Sprague-Dawley rat at 100 mg/kg, po by LC-MS/MS analysis; format: ADME, organism-based; conditions: in vivo
# [7] = AUC (0 to infinity) in Sprague-Dawley rat at 100 mg/kg, po by LC-MS/MS analysis; format: ADME, organism-based; set-up: route oral, time infinity, dose 100 mg/kg; conditions: in vivo
# [8] = MRT in Sprague-Dawley rat at 100 mg/kg, po by LC-MS/MS analysis; format: ADME, organism-based; conditions: in vivo
# [9] = Bioavailability in Sprague-Dawley rat at 100 mg/kg, po by LC-MS/MS analysis; format: ADME, organism-based; conditions: in vivo
# Rattus norvegicus [10] = experiment: Diuretic activity in Sprague-Dawley rat assessed as increase in urine volume at 100 mg/kg, IG after 4 hrs; format: functional, organism-based
# [11] = Metabolic stability in Sprague-Dawley rat plasma assessed as percentage of compound remaining after 240 mins by LC-MS/MS analysis; format: ADME, cell-free; conditions: read-out: Stability
# [12] = Cmax in Sprague-Dawley rat at 100 mg/kg, po by LC-MS/MS analysis; format: ADME, organism-based; set-up: route oral, dose 100 mg/kg; conditions: in vivo
# Rattus norvegicus [13] = experiment: Diuretic activity in Sprague-Dawley rat assessed as increase in urine volume at 50 mg/kg, IG after 2 hrs; format: functional, organism-based
# Mus musculus [14] = organism: Mus musculus; experiment: Diuretic activity in mouse assessed as increase in urine volume; format: functional, organism-based
# [15] = target: Voltage-gated inwardly rectifying potassium channel KCNH2 (Homo sapiens, UniProt Q12809); experiment: Inhibition of hERG; conditions: read-out: INH
# Voltage-gated inwardly rectifying potassium channel KCNH2, sequence (Q12809 whole entry): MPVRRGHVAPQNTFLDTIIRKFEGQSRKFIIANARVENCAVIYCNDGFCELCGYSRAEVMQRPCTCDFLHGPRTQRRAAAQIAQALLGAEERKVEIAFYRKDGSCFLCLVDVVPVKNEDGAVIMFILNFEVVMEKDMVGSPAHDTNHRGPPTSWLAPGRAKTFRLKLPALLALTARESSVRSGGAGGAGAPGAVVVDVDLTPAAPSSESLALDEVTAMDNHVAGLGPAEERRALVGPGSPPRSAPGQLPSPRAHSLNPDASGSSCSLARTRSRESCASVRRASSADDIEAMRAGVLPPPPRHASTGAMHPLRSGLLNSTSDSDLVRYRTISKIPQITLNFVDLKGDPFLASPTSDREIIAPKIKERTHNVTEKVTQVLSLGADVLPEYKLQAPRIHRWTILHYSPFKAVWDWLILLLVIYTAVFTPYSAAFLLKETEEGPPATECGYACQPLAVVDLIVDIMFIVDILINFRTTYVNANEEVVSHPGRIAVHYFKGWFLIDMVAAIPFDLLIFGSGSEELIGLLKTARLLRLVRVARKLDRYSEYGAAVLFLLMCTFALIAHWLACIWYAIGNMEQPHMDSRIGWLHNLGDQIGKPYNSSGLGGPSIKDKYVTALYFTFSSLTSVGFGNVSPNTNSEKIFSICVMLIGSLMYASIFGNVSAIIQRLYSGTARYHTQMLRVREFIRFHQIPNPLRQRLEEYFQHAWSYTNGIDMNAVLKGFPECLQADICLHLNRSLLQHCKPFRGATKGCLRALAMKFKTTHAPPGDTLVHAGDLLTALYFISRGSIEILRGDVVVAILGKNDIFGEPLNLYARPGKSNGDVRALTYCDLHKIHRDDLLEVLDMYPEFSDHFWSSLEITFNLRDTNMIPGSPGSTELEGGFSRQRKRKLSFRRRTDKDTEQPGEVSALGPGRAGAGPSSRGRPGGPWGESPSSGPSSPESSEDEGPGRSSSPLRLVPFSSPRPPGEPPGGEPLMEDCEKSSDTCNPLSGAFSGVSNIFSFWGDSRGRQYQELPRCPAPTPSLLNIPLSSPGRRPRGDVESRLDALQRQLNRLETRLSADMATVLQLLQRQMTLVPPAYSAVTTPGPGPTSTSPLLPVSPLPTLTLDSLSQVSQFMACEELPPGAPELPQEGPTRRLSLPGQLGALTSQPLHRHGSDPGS
# Mus musculus [16] = organism: Mus musculus; experiment: Diuretic activity in mouse assessed as reduction in urine osmolality; format: functional, organism-based
# Rattus norvegicus [17] = experiment: Diuretic activity in Sprague-Dawley rat assessed as increase in urine volume at 100 mg/kg, IG; format: functional, organism-based; conditions: TDE = time-dependent effect
# [18] = target: T3, Urea transporter 1 (Rattus norvegicus) (UniProt P97689); experiment: Inhibition of rat UT-B expressed in MDCK cells assessed as inhibition of urea transport at 8 uM; format: cell-based
# T3 sequence (whole entry): T1 sequence (P97689 whole entry)
# Rattus norvegicus [19] = organism: Rattus norvegicus; experiment: Diuretic activity in IG treated Sprague-Dawley rat assessed as reduction in urine osmolality; format: functional
# MDCK [20] = experiment: Cytotoxicity against MDCK cells assessed as reduction in cell viability at 400 uM measured by CCK-8 assay; format: cell-based, Canis lupus familiaris; conditions: dog
# Rattus norvegicus [21] = experiment: Diuretic activity in Sprague-Dawley rat assessed as increase in urine volume at 100 mg/kg, IG after 2 hrs; format: functional, organism-based
# in vivo = conditions: Sprague-Dawley, rat, po, 100 mg/kg
# Mus musculus [22] = experiment: Diuretic activity in mouse assessed as increase in urine output at 100 mg/kg, IG measured after 7 days; format: functional, organism-based; conditions: time 7.0 day
# MDCK [23] = experiment: Cytotoxicity against MDCK cells assessed as reduction in cell viability at 80 uM measured by CCK-8 assay; format: cell-based, Canis lupus familiaris; conditions: dog
SMILES,IC50 (Urea transporter 1 [1]) [µM],IC50 (Urea transporter 1 [2]) [µM],other results
O=C1Cc2cc(NC(=O)c3ccc([N+](=O)[O-])o3)ccc2N1,3.17,4.99,–
O=C(Nc1ccc(NS(=O)(=O)c2ccc(F)cc2)cc1)c1ccc([N+](=O)[O-])o1,0.64,1.31,–
O=C1CCc2cc(NC(=O)c3ccc([N+](=O)[O-])o3)ccc2N1,1.06,2.19,–
CCS(=O)(=O)Nc1ccc(NC(=O)c2ccc([N+](=O)[O-])o2)cc1,0.28,0.84,–
O=C(Nc1ccc(NS(=O)(=O)c2cccc(Cl)c2)cc1)c1ccc([N+](=O)[O-])o1,0.75,1.01,–
O=C(Nc1ccc(NS(=O)(=O)c2ccccc2C(F)(F)F)cc1)c1ccc([N+](=O)[O-])o1,0.87,1.49,–
CC(=O)Nc1ccc(NC(=O)c2ccc(F)o2)cc1,6.47,> 10,–
O=C(Nc1ccc(NS(=O)(=O)c2ccc(Cl)cc2)cc1)c1ccc([N+](=O)[O-])o1,0.43,0.69,–
O=C(Nc1ccc(NS(=O)(=O)c2cccc(C(F)(F)F)c2)cc1)c1ccc([N+](=O)[O-])o1,1.66,2.22,–
O=C(Nc1ccc(NS(=O)(=O)c2ccccc2Cl)cc1)c1ccc([N+](=O)[O-])o1,0.53,1.05,–
CC(=O)Nc1ccc(NC(=O)c2ccc(C(=O)c3ccccc3)o2)cc1,> 10,9.85,–
CC(=O)Nc1ccc(NC(=O)c2ccc(C(F)F)o2)cc1,> 10,> 10,–
O=C(Nc1ccc(NS(=O)(=O)c2ccc(C(F)(F)F)cc2)cc1)c1ccc([N+](=O)[O-])o1,2.77,3.47,–
CC(=O)Nc1ccc(NC(=O)c2ccc([N+](=O)[O-])o2)cc1,1.41,–,remaining at 4 h [3]: 20%; AUC(0-t) [4]: 0.0781 µg·h/mL; inhibition (MDCK [5]): 102%; t1/2 [6]: 0.93 h; AUC(0-inf) [7]: 0.0825 µg·h/mL; MRT [8]: 1.51 h; bioavailability [9]: 4.38%; Activity (Rattus norvegicus [10]): inactive; remaining at 4 h [11]: 20%; Cmax [12]: 0.0743 µg/mL
CC(=O)Nc1ccc(NC(=O)c2ccc(C(C)=O)o2)cc1,–,–,Activity (Rattus norvegicus [13]): Active; remaining at 4 h [3]: 20%; AUC(0-t) [4]: 6.84 µg·h/mL; inhibition (MDCK [5]): 84.4%; Activity (Mus musculus [14]): Active; IC50 [15]: > 100 µM; Activity (Mus musculus [16]): Active; MRT [8]: 5.45 h; bioavailability [9]: 15.8%; Activity (Rattus norvegicus [17]): Tde; inhibition [18]: 89.6%; fold change (FC) (Rattus norvegicus [19]): 10; Activity (MDCK [20]): Toxic; remaining at 4 h [11]: 20%; Cmax [12]: 1.24 µg/mL; Activity (Rattus norvegicus [21]): Active; Tmax (in vivo): 0.21 h; Activity (Mus musculus [22]): Active
O=C(Nc1ccc(NS(=O)(=O)c2ccccc2)cc1)c1ccc([N+](=O)[O-])o1,0.11,0.24,–
O=C(Nc1ccc2ccc(=O)[nH]c2c1)c1ccc([N+](=O)[O-])o1,0.6,1.5,–
CC(=O)c1ccc(C(=O)Nc2ccc(NS(=O)(=O)c3ccccc3)cc2)o1,0.15,0.16,Activity (MDCK [23]): Toxic
CC(=O)Nc1ccc(NC(=O)c2ccc(C(=O)C(C)(C)C)o2)cc1,> 10,> 10,–
O=C(Nc1cccc2ccc(=O)[nH]c12)c1ccc([N+](=O)[O-])o1,6.05,> 10,–
O=C(Nc1ccc(NS(=O)(=O)c2ccccc2F)cc1)c1ccc([N+](=O)[O-])o1,1.04,1.68,–
O=C(Nc1cccc2[nH]c(=O)ccc12)c1ccc([N+](=O)[O-])o1,> 10,> 10,–
O=C(Nc1ccc(NS(=O)(=O)c2cccc(Br)c2)cc1)c1ccc([N+](=O)[O-])o1,0.81,1.6,–
O=C(Nc1ccc(NS(=O)(=O)c2cccc(F)c2)cc1)c1ccc([N+](=O)[O-])o1,0.66,1.32,–
O=C(Nc1ccc2[nH]c(=O)ccc2c1)c1ccc([N+](=O)[O-])o1,1.23,2.34,–
